The record followed here is ChEMBL document CHEMBL1201862, “PubChem BioAssay data set” (2004).

Test systems include A549; UACC-257; CAKI-1; PC-3; HCC 2998; NCI-H23; HCT-15; KM12; OVCAR-4; Malme-3M; UO-31; U-251; A498; ACHN; NCI-H226; OVCAR-3; OVCAR-5; NCI-H460; HCT-116; NCI/ADR-RES.
Common to all, as to assay: NCI anticancer screen, dose series, 48 h

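48-hour exposure; five concentrations; linearly interpolated endpoints. GI50 is the concentration that inhibits growth by half.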 Activity calls are given as the source filed them. Rule as the data show it: active = GI50 up to about 1.1 µM and inactive = higher. Where only a bound is given, the exact number is not on record here.

In the case of `CCOC(=O)CSc1[nH]c2nc(C)nc(Cl)c2c1C#N`, the GI50 with A549, with UACC-257, with CAKI-1, in the experiment on PC-3, in the experiment on HCC 2998 and in the experiment with NCI-H23 was > 10 µM (inactive) each time. The GI50 was greater than 10 µM in the experiment on HCT-15, > 10 µM (inactive) with KM12, > 10 µM (inactive) in the experiment with OVCAR-4 and > 10 µM (inactive) in the experiment with Malme-3M.

For `COC(=O)C(Cc1nc2ccccc2nc1O)C(=O)C(=O)Nc1ccc([N+](=O)[O-])cc1[N+](=O)[O-]` (stereo not drawn), the GI50 in the experiment on UO-31 was 20.6 µM (inactive); with U-251 it was 17.1 µM (inactive); in the experiment on A549, 34.1 µM (inactive); in the experiment with UACC-257, 19.7 µM (inactive); in the experiment with CAKI-1, 32.4 µM (inactive); with A498, 23 µM (inactive). The GI50 is 18.1 µM (inactive) in the experiment with HCC 2998; 18.2 µM (inactive) in the experiment with ACHN; 18.7 µM (inactive) in the experiment with NCI-H23; 14.5 µM (inactive) with NCI-H226; 15.5 µM (inactive) with OVCAR-3; 27.2 µM (inactive) with OVCAR-5. Also, the GI50 in the experiment on HCT-15 is 17.3 µM; in the experiment with KM12, 16 µM (inactive); with NCI-H460 it was 22.1 µM (inactive); in the experiment with HCT-116, 21.2 µM (inactive); in the experiment on OVCAR-4 it was 20.1 µM (inactive); in the experiment with Malme-3M, 19.3 µM (inactive).

For the compound `CCc1oc2ccc(OC)c3c2c1C=CC=C3`, the GI50 is 21.9 µM (inactive) in the experiment with UO-31; > 100 µM (inactive) with U-251; > 100 µM (inactive) in the experiment with A549; > 100 µM (inactive) in the experiment on UACC-257; > 100 µM (inactive) in the experiment with A498; > 100 µM (inactive) with HCC 2998. Moreover, the GI50 with ACHN is > 100 µM (inactive); in the experiment on NCI-H23 it was > 100 µM (inactive); with NCI-H226, > 100 µM (inactive); in the experiment on OVCAR-3 it was > 100 µM (inactive); in the experiment with OVCAR-5, > 100 µM (inactive); in the experiment on HCT-15, greater than 100 µM. Further, the GI50 in the experiment on KM12, in the experiment on NCI-H460, in the experiment with OVCAR-4 and in the experiment with Malme-3M was > 100 µM (inactive) throughout.

Turning to `Cc1cccc2c1C/C(=C1\CCc3c(C)cccc31)C2=O`, the GI50 in the experiment with UO-31, in the experiment on U-251, with A549, in the experiment with UACC-257, with CAKI-1 and with A498 was > 100 µM (inactive) throughout. Also, the GI50 in the experiment on HCC 2998, in the experiment on ACHN, with NCI-H23, in the experiment on NCI-H226, with OVCAR-3 and in the experiment with OVCAR-5 was > 100 µM (inactive) throughout. Besides, the GI50 was greater than 100 µM with HCT-15; > 100 µM (inactive) in the experiment with KM12; > 100 µM (inactive) in the experiment on NCI-H460; > 100 µM (inactive) in the experiment on HCT-116; 52.6 µM (inactive) in the experiment on OVCAR-4; > 100 µM (inactive) in the experiment with Malme-3M.

Take `Cc1ccc(S(=O)(=O)N/N=C\c2c3ccccc3[n+]([O-])c3ccccc23)cc1`: the GI50 is 14.1 µM (inactive) in the experiment with UO-31; 3.93 µM (inactive) in the experiment with U-251; 5.12 µM (inactive) in the experiment on A549; 9.95 µM (inactive) in the experiment with UACC-257; 6.28 µM (inactive) in the experiment on CAKI-1; 3.8 µM (inactive) in the experiment with A498. For the same compound, the GI50 is 8.57 µM (inactive) with HCC 2998; 2.7 µM (inactive) in the experiment on ACHN; 4.48 µM (inactive) in the experiment on NCI-H23; 4.54 µM (inactive) with NCI-H226; 16.1 µM (inactive) with OVCAR-3; 14.7 µM (inactive) in the experiment on OVCAR-5. Besides, the GI50 in the experiment on HCT-15 is 0.989 µM; with KM12, 9.55 µM (inactive); in the experiment with NCI-H460, 2.44 µM (inactive); in the experiment on HCT-116 it was 0.472 µM (active); in the experiment with OVCAR-4, 10.8 µM (inactive); in the experiment on Malme-3M, 12.2 µM (inactive).

Regarding `CCCCC(C(=O)C(=O)NC1C2CC3CC(C2)CC1C3)C(=O)C(C)C` (stereo not drawn), the GI50 in the experiment with UO-31, in the experiment on U-251, in the experiment with A549, in the experiment with UACC-257, in the experiment with CAKI-1 and in the experiment with A498 was > 100 µM (inactive) each time. The GI50 with HCC 2998, in the experiment on ACHN, in the experiment on NCI-H23, in the experiment with NCI-H226, in the experiment with OVCAR-3 and in the experiment with OVCAR-5 was > 100 µM (inactive) each time. The GI50 in the experiment on HCT-15 is greater than 100 µM; with KM12, > 100 µM (inactive); in the experiment on NCI-H460, > 100 µM (inactive); in the experiment with HCT-116 it was > 100 µM (inactive); in the experiment with OVCAR-4, > 100 µM (inactive); in the experiment with Malme-3M, > 100 µM (inactive).

`NC(=S)N/N=C(/CC(=O)c1ccccc1)C(=O)Nc1ccc(Cl)c(Cl)c1`: the GI50 in the experiment on UO-31 is 51.2 µM (inactive); in the experiment with U-251 it was 59 µM (inactive); in the experiment on A549, > 100 µM (inactive); in the experiment on UACC-257, > 100 µM (inactive); in the experiment on CAKI-1, 68.5 µM (inactive); in the experiment with A498, > 100 µM (inactive). Moreover, the GI50 in the experiment with HCC 2998 was 93.5 µM (inactive); with ACHN, 75.2 µM (inactive); in the experiment with NCI-H23 it was > 100 µM (inactive); in the experiment with NCI-H226, > 100 µM (inactive); in the experiment on OVCAR-3 it was 37.3 µM (inactive); in the experiment with OVCAR-5, > 100 µM (inactive). The GI50 in the experiment on HCT-15 is 43.3 µM; in the experiment with KM12 it was 65.3 µM (inactive); in the experiment on NCI-H460 it was 46.7 µM (inactive); in the experiment on HCT-116, > 100 µM (inactive); with OVCAR-4, 57.3 µM (inactive); in the experiment with Malme-3M, > 100 µM (inactive).

Regarding `O=C(CO)CC(=O)C(=O)Nc1nc([N+](=O)[O-])cs1`, the GI50 in the experiment on UO-31, in the experiment with U-251, in the experiment with A549, with UACC-257, in the experiment on CAKI-1 and in the experiment on A498 was > 100 µM (inactive) throughout. The GI50 with HCC 2998, with ACHN, in the experiment on NCI-H23, in the experiment with NCI-H226, in the experiment with OVCAR-3 and in the experiment with OVCAR-5 was > 100 µM (inactive) each time. The GI50 with HCT-15 was greater than 100 µM; in the experiment on KM12, > 100 µM (inactive); in the experiment with NCI-H460, > 100 µM (inactive); with HCT-116 it was > 100 µM (inactive); in the experiment with OVCAR-4 it was > 100 µM (inactive); in the experiment with Malme-3M, > 100 µM (inactive).

Regarding `O=C(/C=C/c1ccccc1Cl)NC1C=Nc2ccc([N+](=O)[O-])cc2NC1` (stereo not drawn), the GI50 with UO-31 was 24.4 µM (inactive); with U-251, 35.3 µM (inactive); with A549, > 100 µM (inactive); in the experiment on UACC-257, 89.3 µM (inactive); with CAKI-1, 66.8 µM (inactive); in the experiment with A498 it was > 100 µM (inactive). For the same compound, the GI50 in the experiment on HCC 2998 was > 100 µM (inactive); with ACHN, 39.7 µM (inactive); with NCI-H226 it was > 100 µM (inactive); with OVCAR-3, 42.3 µM (inactive); in the experiment on OVCAR-5 it was > 100 µM (inactive); with HCT-15, 35.9 µM. The GI50 in the experiment with KM12 is 34.4 µM (inactive); in the experiment with NCI-H460, 47 µM (inactive); in the experiment with HCT-116, 59.6 µM (inactive); with OVCAR-4, 78.3 µM (inactive); with Malme-3M it was > 100 µM (inactive).

For the compound `Cc1ccc(NC(=O)C(=O)C(C(=O)c2ccc3ccccc3c2)C2OC(=O)c3ccccc32)cc1C` (stereo not drawn), the GI50 in the experiment with UO-31 is 11.9 µM (inactive); with U-251 it was 3.92 µM (inactive); with A549, 16.5 µM (inactive); with UACC-257, 10 µM (inactive); in the experiment on CAKI-1, 8.57 µM (inactive); in the experiment with A498, 10.4 µM (inactive). Besides, the GI50 is 2.77 µM (inactive) in the experiment on HCC 2998; 32 µM (inactive) in the experiment on ACHN; 4.79 µM (inactive) in the experiment with NCI-H23; 3.14 µM (inactive) in the experiment with NCI-H226; 10.9 µM (inactive) in the experiment with OVCAR-3; 23.9 µM (inactive) with OVCAR-5. Also, the GI50 with HCT-15 is 5.02 µM; in the experiment on KM12, 19.5 µM (inactive); in the experiment with NCI-H460 it was 5.74 µM (inactive); with HCT-116, 11.8 µM (inactive); with OVCAR-4, 13.1 µM (inactive); with Malme-3M, 12.7 µM (inactive).

Turning to `N#CC(C(=O)c1ccccc1F)c1nc2cc(C(F)(F)F)ccc2s1` (stereo not drawn), the GI50 in the experiment on U-251 is 26.7 µM (inactive); with UACC-257, 27.4 µM (inactive); in the experiment with CAKI-1, 32.3 µM (inactive); in the experiment on A498, 14 µM (inactive); in the experiment with ACHN it was 27.5 µM (inactive); in the experiment with NCI-H23, 19.7 µM (inactive). For the same compound, the GI50 in the experiment on NCI-H226 is 33.2 µM (inactive); in the experiment with OVCAR-3, 16.6 µM (inactive); with OVCAR-5 it was 21.2 µM (inactive); with HCT-15 it was 20.1 µM; in the experiment with KM12, 32.5 µM (inactive); in the experiment with NCI-H460, 30.1 µM (inactive). Moreover, the GI50 with HCT-116 was 19.2 µM (inactive); in the experiment with NCI/ADR-RES it was 19.7 µM (inactive); in the experiment with OVCAR-4, 31.3 µM (inactive); with Malme-3M, 19.6 µM (inactive).

As to `COc1ccc(OC)c2[nH]c(Sc3c([N+](=O)[O-])ncn3C)nc12`, the GI50 with UO-31 is 28.6 µM (inactive); in the experiment on U-251 it was 28.9 µM (inactive); in the experiment on A549 it was 33.7 µM (inactive); in the experiment on UACC-257, 15.3 µM (inactive); in the experiment on CAKI-1, 17.1 µM (inactive); in the experiment with A498, 31 µM (inactive). Besides, the GI50 in the experiment with HCC 2998 is 20.3 µM (inactive); with ACHN it was 27.8 µM (inactive); with NCI-H23, 17.5 µM (inactive); in the experiment on NCI-H226, 14.2 µM (inactive); with OVCAR-3, 16.8 µM (inactive); with OVCAR-5, 94.6 µM (inactive). For the same compound, the GI50 is 16 µM in the experiment on HCT-15; 43.1 µM (inactive) with KM12; 38.1 µM (inactive) with NCI-H460; 21.7 µM (inactive) in the experiment on HCT-116; 22.9 µM (inactive) in the experiment with OVCAR-4; 13.5 µM (inactive) with Malme-3M.
